Measured values from patent US20240116985A1, “STAPLED PEPTIDES AND METHODS THEREOF” (priority 2020, published 2024).

What was measured:
[1] = target: T1, full-length beta-Catenin (Uniprot ID P35222) (Homo sapiens, UniProt P35222); test: Fluorescence polarization IC50 (beta-catenin / 5FAM-TCF4 10-53 competition); type: binding; conditions: fluorescence polarization; read-out: beta-Catenin FP IC50
T1 construct: 10 nM full-length beta-Catenin (Uniprot ID P35222)
T1 sequence (P35222 1-781): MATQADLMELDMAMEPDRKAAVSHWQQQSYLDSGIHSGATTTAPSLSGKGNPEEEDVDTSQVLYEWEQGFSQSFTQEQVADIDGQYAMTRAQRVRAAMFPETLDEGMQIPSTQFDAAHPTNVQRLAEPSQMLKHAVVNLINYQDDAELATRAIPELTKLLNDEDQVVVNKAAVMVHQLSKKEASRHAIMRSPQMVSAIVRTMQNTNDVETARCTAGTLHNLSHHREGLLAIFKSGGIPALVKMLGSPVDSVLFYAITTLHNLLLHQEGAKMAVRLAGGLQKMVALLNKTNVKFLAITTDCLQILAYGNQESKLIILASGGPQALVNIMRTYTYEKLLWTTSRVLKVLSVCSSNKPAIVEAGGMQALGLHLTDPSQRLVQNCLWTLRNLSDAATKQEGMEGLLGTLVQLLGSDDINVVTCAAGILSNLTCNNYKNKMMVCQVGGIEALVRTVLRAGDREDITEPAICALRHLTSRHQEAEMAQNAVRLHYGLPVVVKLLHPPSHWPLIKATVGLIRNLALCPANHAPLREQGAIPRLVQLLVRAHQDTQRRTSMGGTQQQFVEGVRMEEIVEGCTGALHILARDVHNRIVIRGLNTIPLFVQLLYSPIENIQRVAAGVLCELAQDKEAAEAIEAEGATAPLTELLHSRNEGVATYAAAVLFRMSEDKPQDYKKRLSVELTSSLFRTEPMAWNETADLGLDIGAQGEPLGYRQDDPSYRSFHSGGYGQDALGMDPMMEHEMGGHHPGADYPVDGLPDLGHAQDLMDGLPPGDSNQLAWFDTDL

[2] = target: T2, beta-catenin/TCF4 engagement (Homo sapiens, UniProt P35222); test: Nano-BRET target engagement assay (B-cat-Halo & TCF4-Luc in HEK293 cells); type: cell-based; conditions: absolute IC50; read-out: NanoBRET Abs IC50
T2 construct: expressed in transfected cells; host or cells: HEK293
T2 sequence (P35222 1-781): T1 sequence (P35222 1-781)

| Structure (SMILES) | IC50 [1] | IC50 [2] |
| --- | --- | --- |
| CC(=O)N1CCC[C@]12CC=CCCCC1(CCCC=CCCCOC(=O)N3CC[C@@](C(=O)N[C@@H](Cc4ccccc4C(F)(F)F)C(=O)N[C@@H](Cc4csc5ccccc45)C(=O)N[C@@H](CO)C(N)=O)(C3)NC(=O)[C@H](CC(C)C)NC(=O)[C@H](Cc3ccccc3)NC(=O)[C@H](C)NC(=O)[C@H](C)NC(=O)[C@H](Cn3cc(CC(=O)O)nn3)NC(=O)[C@H](CC(=O)O)NC1=O)NC(=O)[C@H](CC(C)(C)C)NC(=O)[C@H](CC(=O)O)NC2=O (stereo partly drawn) [I-2373, Ac-PL3-Asp-Npg-B5-Asp-[CH2CO2H]TriAzDap-Ala-Ala-Phe-Leu-PyrS2-2F3MeF-BztA-Ser-NH2] | 5 nM | 4 µM |
| CCCc1cn(CCCC[C@H](NC(=O)[C@H](Cc2csc3ccccc23)NC(=O)[C@H](Cc2ccsc2)NC(=O)[C@]23CCN(C2)C(=O)OCCCC=CCCCC2(CCCC=CC[C@]4(CCCN4C(C)=O)C(=O)N[C@@H](CC(=O)O)C(=O)N[C@@H](CC(C)(C)C)C(=O)N2)C(=O)N[C@@H](CC(=O)O)C(=O)N[C@@H](CC(=O)O)C(=O)N[C@@H](C)C(=O)N[C@@H](C)C(=O)N[C@@H](Cc2ccccc2)C(=O)N[C@@H](CC(C)C)C(=O)N3)C(N)=O)nn1 (stereo partly drawn) [I-2375, Ac-PL3-Asp-Npg-B5-Asp-Asp-Ala-Ala-Phe-Leu-PyrS2-3Thi-BztA-[3C]TriAzLys-NH2] | 5 nM | 13.5 µM |
| CC(=O)N1CCC[C@]12CC=CCCCC1(CCCC=CCCCOC(=O)N3CC[C@@](C(=O)N[C@@H](Cc4ccccc4C(F)(F)F)C(=O)N[C@@H](Cc4csc5ccccc45)C(=O)N[C@@H](CCC(N)=O)C(=O)N[C@@H](CC(C)C)C(=O)NC4(C(N)=O)CCCC4)(C3)NC(=O)[C@H](CC(C)C)NC(=O)[C@H](Cc3ccccc3)NC(=O)[C@H](C)NC(=O)[C@H](C)NC(=O)[C@H](Cc3cccc(C(=O)O)c3)NC(=O)[C@H](CC(=O)O)NC1=O)NC(=O)[C@H](CC(C)(C)C)NC(=O)[C@H](CC(=O)O)NC2=O (stereo partly drawn) [I-2387, Ac-PL3-Asp-Npg-B5-Asp-3COOHF-Ala-Ala-Phe-Leu-PyrS2-2F3MeF-BztA-Gln-Leu-CyLeu-NH2] | 120 nM | 7.1 µM |
| CC(=O)N1CCC[C@]12CC=CCCCC1(CCCC=CCCCOC(=O)N3CC[C@@](C(=O)N[C@@H](Cc4ccccc4C(F)(F)F)C(=O)N[C@@H](Cc4csc5ccccc45)C(=O)N[C@@H](CCC(N)=O)C(=O)N[C@@H](CC(C)C)C(=O)N[C@@H](Cc4ccc(O)cc4)C(N)=O)(C3)NC(=O)[C@H](CC(C)C)NC(=O)[C@H](Cc3ccccc3)NC(=O)[C@H](C)NC(=O)[C@H](C)NC(=O)[C@H](Cc3cccc(C(=O)O)c3)NC(=O)[C@H](CC(=O)O)NC1=O)NC(=O)[C@H](CC(C)(C)C)NC(=O)[C@H](CC(=O)O)NC2=O (stereo partly drawn) [I-2392, Ac-PL3-Asp-Npg-B5-Asp-3COOHF-Ala-Ala-Phe-Leu-PyrS2-2F3MeF-BztA-Gln-Leu-Tyr-NH2] | 461 nM | 8.6 µM |
| C#CC(=O)N1CCC[C@]12CC=CCCCC1(CCCC=CCCCOC(=O)N3CC[C@@](C(=O)N[C@@H](Cc4ccsc4)C(=O)N[C@@H](Cc4csc5ccccc45)C(=O)N[C@@H](Cc4c[nH]cn4)C(N)=O)(C3)NC(=O)[C@H](CCC(N)=O)NC(=O)[C@H](Cc3ccccc3)NC(=O)[C@H](C)NC(=O)[C@H](C)NC(=O)[C@H](CC(=O)O)NC(=O)[C@H](CC(=O)O)NC1=O)NC(=O)[C@H](CC(C)(C)C)NC(=O)[C@H](CC(=O)O)NC2=O (stereo partly drawn) [I-2402, PropynOH-PL3-Asp-Npg-B5-Asp-Asp-Ala-Ala-Phe-Gln-PyrS2-3Thi-BztA-His-NH2] | 16 nM | > 20 µM |
| C#CC(=O)N1CCC[C@]12CC=CCCCC1(CCCC=CCCCOC(=O)N3CC[C@@](C(=O)N[C@@H](Cc4ccccc4Cl)C(=O)N[C@@H](Cc4csc5ccccc45)C(=O)N[C@@H](C)C(N)=O)(C3)NC(=O)[C@H](CC(C)C)NC(=O)[C@H](Cc3ccccc3)NC(=O)[C@H](C)NC(=O)[C@H](C)NC(=O)[C@H](Cc3cccc(C(=O)O)c3)NC(=O)[C@H](CC(=O)O)NC1=O)NC(=O)[C@H](CC(C)(C)C)NC(=O)[C@H](CC(=O)O)NC2=O (stereo partly drawn) [I-2403, PropynOH-PL3-Asp-Npg-B5-Asp-3COOHF-Ala-Ala-Phe-Leu-PyrS2-2C1F-BztA-Ala-NH2] | 12 nM | > 20 µM |
| CC(=O)N1CCC[C@]12CC=CCCCC1(CCCC=CCCCOC(=O)N3CC[C@@](C(=O)N[C@@H](Cc4ccsc4)C(=O)N[C@@H](Cc4csc5ccccc45)C(=O)N[C@@H](CCC(N)=O)C(N)=O)(C3)NC(=O)[C@H](CCCNC(=N)N)NC(=O)[C@H](Cc3ccccc3)NC(=O)[C@H](C)NC(=O)C(C)(C)NC(=O)[C@H]([C@@H](C)O)NC(=O)[C@H](CC(N)=O)NC1=O)NC(=O)[C@H](CC(C)(C)C)NC(=O)[C@H](CC(=O)O)NC2=O (stereo partly drawn) [I-2407, Ac-PL3-Asp-Npg-B5-Asn-Thr-Aib-Ala-Phe-Arg-PyrS2-3Thi-BztA-Gln-NH2] | 138 nM | > 20 µM |
| CC(=O)N1CCC[C@]12CC=CCCCC1(CCCC=CCCCOC(=O)N3CC[C@@](C(=O)N[C@@H](Cc4ccsc4)C(=O)N[C@@H](Cc4csc5ccccc45)C(=O)N[C@@H](CCC(N)=O)C(N)=O)(C3)NC(=O)[C@H]([C@@H](C)O)NC(=O)[C@H](Cc3ccccc3)NC(=O)[C@H](C)NC(=O)C(C)(C)NC(=O)[C@H]([C@@H](C)O)NC(=O)[C@H](CC(N)=O)NC1=O)NC(=O)[C@H](CC(C)(C)C)NC(=O)[C@H](CC(=O)O)NC2=O (stereo partly drawn) [I-2409, Ac-PL3-Asp-Npg-B5-Asn-Thr-Aib-Ala-Phe-Thr-PyrS2-3Thi-BztA-Gln-NH2] | 397 nM | 50 µM |

Results, then the compound that gave them:

| IC50 [1] | IC50 [2] | Structure (SMILES) |
| --- | --- | --- |
| 246 nM | 5 µM | CC(=O)N1CCC[C@]12CC=CCCCC1(CCCC=CCCCOC(=O)N3CC[C@@](C(=O)N[C@@H](Cc4ccccc4C(F)(F)F)C(=O)N[C@@H](Cc4csc5ccccc45)C(=O)N[C@@H](CCC(N)=O)C(=O)N[C@@H](CC(C)C)C(=O)N[C@H](C(N)=O)C(C)C)(C3)NC(=O)[C@H](CC(C)C)NC(=O)[C@H](Cc3ccccc3)NC(=O)[C@H](C)NC(=O)[C@H](C)NC(=O)[C@H](Cc3cccc(C(=O)O)c3)NC(=O)[C@H](CC(=O)O)NC1=O)NC(=O)[C@H](CC(C)(C)C)NC(=O)[C@H](CC(=O)O)NC2=O (stereo partly drawn) [I-2379, Ac-PL3-Asp-Npg-B5-Asp-3COOHF-Ala-Ala-Phe-Leu-PyrS2-2F3MeF-BztA-Gln-Leu-Val-NH2] |
| 187 nM | 8.3 µM | CC(=O)N1CCC[C@]12CC=CCCCC1(CCCC=CCCCOC(=O)N3CC[C@@](C(=O)N[C@@H](Cc4ccccc4C(F)(F)F)C(=O)N[C@@H](Cc4csc5ccccc45)C(=O)N[C@@H](CCC(N)=O)C(=O)N[C@@H](CC(C)C)C(=O)N[C@H](CC(C)C)C(N)=O)(C3)NC(=O)[C@H](CC(C)C)NC(=O)[C@H](Cc3ccccc3)NC(=O)[C@H](C)NC(=O)[C@H](C)NC(=O)[C@H](Cc3cccc(C(=O)O)c3)NC(=O)[C@H](CC(=O)O)NC1=O)NC(=O)[C@H](CC(C)(C)C)NC(=O)[C@H](CC(=O)O)NC2=O (stereo partly drawn) [I-2396, Ac-PL3-Asp-Npg-B5-Asp-3COOHF-Ala-Ala-Phe-Leu-PyrS2-2F3MeF-BztA-Gln-Leu-dLeu-NH2] |
| 53 nM | 7.8 µM | CC(=O)N1CCC[C@]12CC=CCCCC1(CCCC=CCCCOC(=O)N3CC[C@@](C(=O)N[C@@H](Cc4ccccc4C(F)(F)F)C(=O)N[C@@H](Cc4csc5ccccc45)C(=O)N[C@@H](CCC(N)=O)C(=O)N[C@@H](CC(C)C)C(=O)N[C@@H](C(N)=O)[C@H](C)O)(C3)NC(=O)[C@H](CC(C)C)NC(=O)[C@H](Cc3ccccc3)NC(=O)[C@H](C)NC(=O)[C@H](C)NC(=O)[C@H](Cc3cccc(C(=O)O)c3)NC(=O)[C@H](CC(=O)O)NC1=O)NC(=O)[C@H](CC(C)(C)C)NC(=O)[C@H](CC(=O)O)NC2=O (stereo partly drawn) [I-2397, Ac-PL3-Asp-Npg-B5-Asp-3COOHF-Ala-Ala-Phe-Leu-PyrS2-2F3MeF-BztA-Gln-Leu-dThr-NH2] |
